According to article PMC11579512, “Deoxybouvardin-glucoside induces apoptosis in non-small cell lung cancer cells by targeting EGFR/MET and AKT signaling pathway” (EXCLI Journal, 2024):

Experiments:
Type in all cases: cell-based, human
p-AKT = assay: Immunoblot p-AKT with NAC pretreatment, HCC827 and HCC827GR cells; conditions: for p-AKT protein Ratio: control = 1.00
Experimental: (§1) HaCaT cells were grown in DMEM, whereas HCC827 and HCC827GR cells were grown in RPMI 1640. All culture media were supplemented with FBS (10 %) and P/S (1 %), and the cells were grown at 37 °C in 5 % CO2.
(§2) Cells were lysed in RIPA buffer, and protein concentration was determined using a Bio-Rad DC Protein Assay kit (Bio-Rad, Hercules, CA, USA). Protein samples from the cell lysates were resolved by sodium dodecyl sulfate-polyacrylamide gel electrophoresis and then transferred onto polyvinylidene fluoride membranes. The membranes were blocked with 3 % or 5 % skim milk and then incubated at 4 °C overnight with the indicated primary antibodies, followed by the corresponding horseradish peroxidase-conjugated secondary antibodies at RT for 2 h. Protein bands were visualized using western blotting luminol reagent solution and ImageQuant LAS 500 (GE Healthcare, Uppsala, Sweden). The density of the bands was quantified using ImageJ software (NIH, Bethesda, MD, USA).

cyclin D1 = assay: Immunoblot cyclin D1 in HCC827 and HCC827GR cells; conditions: for cyclinD1 protein ratio: relative to DBG 0 nM = 1.00
Experimental: as §1, §2

cytochrome c (cytosol) = assay: Immunoblot cytosolic cytochrome c in HCC827 and HCC827GR cells
Experimental: as §2
The cells were suspended in plasma membrane extraction buffer [250 mM sucrose, 10 mM HEPES (pH 8.0), 10 mM KCl, 1.5 mM MgCl2• 6H2O, 1 mM EGTA, 1 mM EDTA, 0.1 mM PMSF, 0.01 mg/ml aprotinin, and 0.01 mg/ml leupeptin], and 0.1 % digitonin was added for vortexing (1 min). The supernatant was collected as the cytosolic fraction. The pellet was resuspended in plasma membrane extraction buffer containing 0.5 % Triton X-100. The lysates were centrifuged at 13,000 rpm for 30 min to separate the mitochondrial fraction.

HCC827GR cells = assay: Multi-caspase assay, HCC827GR; design: Caspase+ cells / Total Caspase+ cells / dead cells (multi-caspase assay) / Live cells (multi-caspase assay): unit not given here; conditions: for cells with activated caspases: 48 h, background 6.43 %; for Caspase+ cells / Caspase+/dead cells / Live cells (multi-caspase assay) / Total Caspase+ cells / dead cells (multi-caspase assay): HCC827GR
Experimental: as §1

Bim = assay: Immunoblot Bim in HCC827 and HCC827GR cells; conditions: for Bim protein Ratio: DBG 0 nM 0.47
Experimental: as §1, §2

COc1ccc(C[C@H]2C(=O)N[C@@H](C)C(=O)N(C)[C@H]3Cc4ccc(cc4)Oc4cc(ccc4O[C@@H]4O[C@H](CO)[C@@H](O)[C@H](O)[C@H]4O)C[C@@H](C(=O)N[C@H](C)C(=O)N[C@@H](C)C(=O)N2C)N(C)C3=O)cc1 [DBG, deoxybouvardin glucoside]
p-AKT protein/actin (p-AKT; HCC827, DBG 12 nM, control 1.00): 0.39
p-AKT protein Ratio (p-AKT; HCC827, DBG 12 nM): 0.39
p-AKT protein/actin (p-AKT; HCC827, NAC 4 mM + DBG 12 nM, control 1.00): 0.42
p-AKT protein Ratio (p-AKT; HCC827, NAC 4 mM + DBG 12 nM): 0.42
p-AKT protein/actin (p-AKT; HCC827GR, DBG 12 nM, control 1.04): 0.30
p-AKT protein Ratio (p-AKT; HCC827GR, DBG 12 nM): 0.29
p-AKT protein/actin (p-AKT; HCC827GR, NAC 4 mM + DBG 12 nM, control 1.04): 0.17
p-AKT protein Ratio (p-AKT; HCC827GR, NAC 4 mM + DBG 12 nM): 0.16
DBG-decreased phosphorylation of AKT with NAC (p-AKT; NAC 4 mM pretreatment, DBG 48 h): did not change
level of cyclin D1 (cyclin D1; DBG 3, 6, 12 nM, 48 h): significantly decreased
cyclinD1 protein/actin (cyclin D1; HCC827, DBG 3 nM, DBG 0 nM 0.51): 0.23
cyclinD1 protein ratio (cyclin D1; HCC827, DBG 3 nM): 0.46
cyclinD1 protein/actin (cyclin D1; HCC827, DBG 6 nM, DBG 0 nM 0.51): 0.14
cyclinD1 protein ratio (cyclin D1; HCC827, DBG 6 nM): 0.27
cyclinD1 protein/actin (cyclin D1; HCC827, DBG 12 nM, DBG 0 nM 0.51): 0.09
cyclinD1 protein ratio (cyclin D1; HCC827, DBG 12 nM): 0.17
cyclinD1 protein/actin (cyclin D1; HCC827GR, DBG 3 nM, DBG 0 nM 0.73): 0.37
cyclinD1 protein ratio (cyclin D1; HCC827GR, DBG 3 nM): 0.51
cyclinD1 protein/actin (cyclin D1; HCC827GR, DBG 6 nM, DBG 0 nM 0.73): 0.33
cyclinD1 protein ratio (cyclin D1; HCC827GR, DBG 6 nM): 0.45
cyclinD1 protein/actin (cyclin D1; HCC827GR, DBG 12 nM, DBG 0 nM 0.73): 0.41
cyclinD1 protein ratio (cyclin D1; HCC827GR, DBG 12 nM): 0.57
cyto c (cytosol) cyto c/β-tubulin/actin (A) (cytochrome c (cytosol); HCC827, DBG 3 nM, DBG 0 nM 12.22): 16.55
cyto c (cytosol) protein Ratio (cytochrome c (cytosol); HCC827, DBG 3 nM, relative to DBG 12 nM = 1.00, DBG 0 nM 0.18): 0.25
cyto c (cytosol) cyto c/β-tubulin/actin (A) (cytochrome c (cytosol); HCC827, DBG 6 nM, DBG 0 nM 12.22): 47.59
cyto c (cytosol) protein Ratio (cytochrome c (cytosol); HCC827, DBG 6 nM, relative to DBG 12 nM = 1.00, DBG 0 nM 0.18): 0.72
cyto c (cytosol) protein Ratio (cytochrome c (cytosol); HCC827, DBG 12 nM (reference of the ratio, 1.00), DBG 0 nM 0.18): 1.00
cyto c (cytosol) cyto c/β-tubulin/actin (A) (cytochrome c (cytosol); HCC827, DBG 12 nM, DBG 0 nM 12.22): 66.24
cyto c (cytosol) cyto c/β-tubulin/actin (A) (cytochrome c (cytosol); HCC827GR, DBG 3 nM, DBG 0 nM 5.99): 33.57
cyto c (cytosol) protein Ratio (cytochrome c (cytosol); HCC827GR, DBG 3 nM, relative to DBG 12 nM = 1.00, DBG 0 nM 0.07): 0.41
cyto c (cytosol) cyto c/β-tubulin/actin (A) (cytochrome c (cytosol); HCC827GR, DBG 6 nM, DBG 0 nM 5.99): 49.49
cyto c (cytosol) protein Ratio (cytochrome c (cytosol); HCC827GR, DBG 6 nM, relative to DBG 12 nM = 1.00, DBG 0 nM 0.07): 0.60
cyto c (cytosol) protein Ratio (cytochrome c (cytosol); HCC827GR, DBG 12 nM (reference of the ratio, 1.00), DBG 0 nM 0.07): 1.00
cyto c (cytosol) cyto c/β-tubulin/actin (A) (cytochrome c (cytosol); HCC827GR, DBG 12 nM, DBG 0 nM 5.99): 82.76
cytochrome c release (cytochrome c (cytosol); NSCLC cells, DBG, cytosolic and mitochondrial fractions): released from the mitochondria
cells with activated caspases (HCC827GR cells; DBG 3 nM): 23.91%
cells with activated caspases (HCC827GR cells; DBG 6 nM): 31.13%
cells with activated caspases (HCC827GR cells; DBG 12 nM): 33.34%
Caspase+ cells (HCC827GR cells; DBG 3 nM, mean of samples 1-3): 8.71
Caspase+/dead cells (HCC827GR cells; DBG 3 nM, mean of samples 1-3): 15.20
Live cells (multi-caspase assay) (HCC827GR cells; DBG 3 nM, mean of samples 1-3): 74.50
Total Caspase+ cells (HCC827GR cells; DBG 3 nM, mean of samples 1-3): 23.91
dead cells (multi-caspase assay) (HCC827GR cells; DBG 3 nM, mean of samples 1-3): 1.60
Caspase+ cells (HCC827GR cells; DBG 3 nM, sample 1): 8.78
Caspase+/dead cells (HCC827GR cells; DBG 3 nM, sample 1): 15.95
Live cells (multi-caspase assay) (HCC827GR cells; DBG 3 nM, sample 1): 73.93
Total Caspase+ cells (HCC827GR cells; DBG 3 nM, sample 1): 24.73
dead cells (multi-caspase assay) (HCC827GR cells; DBG 3 nM, sample 1): 1.34
Caspase+ cells (HCC827GR cells; DBG 3 nM, sample 2): 8.19
Caspase+/dead cells (HCC827GR cells; DBG 3 nM, sample 2): 14.57
Live cells (multi-caspase assay) (HCC827GR cells; DBG 3 nM, sample 2): 75.49
Total Caspase+ cells (HCC827GR cells; DBG 3 nM, sample 2): 22.76
dead cells (multi-caspase assay) (HCC827GR cells; DBG 3 nM, sample 2): 1.75
Caspase+ cells (HCC827GR cells; DBG 3 nM, sample 3): 9.16
Caspase+/dead cells (HCC827GR cells; DBG 3 nM, sample 3): 15.07
Live cells (multi-caspase assay) (HCC827GR cells; DBG 3 nM, sample 3): 74.07
Total Caspase+ cells (HCC827GR cells; DBG 3 nM, sample 3): 24.23
dead cells (multi-caspase assay) (HCC827GR cells; DBG 3 nM, sample 3): 1.70
Caspase+ cells (HCC827GR cells; DBG 6 nM, mean of samples 1-3): 7.98
Caspase+/dead cells (HCC827GR cells; DBG 6 nM, mean of samples 1-3): 23.15
Live cells (multi-caspase assay) (HCC827GR cells; DBG 6 nM, mean of samples 1-3): 67.79
Total Caspase+ cells (HCC827GR cells; DBG 6 nM, mean of samples 1-3): 31.13
dead cells (multi-caspase assay) (HCC827GR cells; DBG 6 nM, mean of samples 1-3): 1.08
Caspase+ cells (HCC827GR cells; DBG 6 nM, sample 1): 7.79
Caspase+/dead cells (HCC827GR cells; DBG 6 nM, sample 1): 23.36
Live cells (multi-caspase assay) (HCC827GR cells; DBG 6 nM, sample 1): 67.58
Total Caspase+ cells (HCC827GR cells; DBG 6 nM, sample 1): 31.15
dead cells (multi-caspase assay) (HCC827GR cells; DBG 6 nM, sample 1): 1.27
Caspase+ cells (HCC827GR cells; DBG 6 nM, sample 2): 7.88
Caspase+/dead cells (HCC827GR cells; DBG 6 nM, sample 2): 23.02
Live cells (multi-caspase assay) (HCC827GR cells; DBG 6 nM, sample 2): 67.97
Total Caspase+ cells (HCC827GR cells; DBG 6 nM, sample 2): 30.90
dead cells (multi-caspase assay) (HCC827GR cells; DBG 6 nM, sample 2): 1.13
Caspase+ cells (HCC827GR cells; DBG 6 nM, sample 3): 8.26
Caspase+/dead cells (HCC827GR cells; DBG 6 nM, sample 3): 23.08
Live cells (multi-caspase assay) (HCC827GR cells; DBG 6 nM, sample 3): 67.82
Total Caspase+ cells (HCC827GR cells; DBG 6 nM, sample 3): 31.34
dead cells (multi-caspase assay) (HCC827GR cells; DBG 6 nM, sample 3): 0.83
Caspase+ cells (HCC827GR cells; DBG 12 nM, mean of samples 1-3): 9.57
Caspase+/dead cells (HCC827GR cells; DBG 12 nM, mean of samples 1-3): 23.77
Live cells (multi-caspase assay) (HCC827GR cells; DBG 12 nM, mean of samples 1-3): 66.05
Total Caspase+ cells (HCC827GR cells; DBG 12 nM, mean of samples 1-3): 33.34
dead cells (multi-caspase assay) (HCC827GR cells; DBG 12 nM, mean of samples 1-3): 0.61
Caspase+ cells (HCC827GR cells; DBG 12 nM, sample 1): 11.11
Caspase+/dead cells (HCC827GR cells; DBG 12 nM, sample 1): 21.58
Live cells (multi-caspase assay) (HCC827GR cells; DBG 12 nM, sample 1): 67.07
Total Caspase+ cells (HCC827GR cells; DBG 12 nM, sample 1): 32.69
dead cells (multi-caspase assay) (HCC827GR cells; DBG 12 nM, sample 1): 0.24
Caspase+ cells (HCC827GR cells; DBG 12 nM, sample 2): 10.36
Caspase+/dead cells (HCC827GR cells; DBG 12 nM, sample 2): 24.35
Live cells (multi-caspase assay) (HCC827GR cells; DBG 12 nM, sample 2): 65.05
Total Caspase+ cells (HCC827GR cells; DBG 12 nM, sample 2): 34.70
dead cells (multi-caspase assay) (HCC827GR cells; DBG 12 nM, sample 2): 0.24
Caspase+ cells (HCC827GR cells; DBG 12 nM, sample 3): 7.24
Caspase+/dead cells (HCC827GR cells; DBG 12 nM, sample 3): 25.38
Live cells (multi-caspase assay) (HCC827GR cells; DBG 12 nM, sample 3): 66.02
Total Caspase+ cells (HCC827GR cells; DBG 12 nM, sample 3): 32.62
dead cells (multi-caspase assay) (HCC827GR cells; DBG 12 nM, sample 3): 1.36
Bim protein/actin (Bim; HCC827, DBG 3 nM, DBG 0 nM 0.53): 0.53
Bim protein Ratio (Bim; HCC827, DBG 3 nM, relative to DBG 12 nM = 1.00): 0.48
Bim protein/actin (Bim; HCC827, DBG 6 nM, DBG 0 nM 0.53): 0.73
Bim protein Ratio (Bim; HCC827, DBG 6 nM, relative to DBG 12 nM = 1.00): 0.65
Bim protein Ratio (Bim; HCC827, DBG 12 nM (reference of the ratio, 1.00)): 1.00
Bim protein/actin (Bim; HCC827, DBG 12 nM, DBG 0 nM 0.53): 1.12
Bim protein/actin (Bim; HCC827GR, DBG 3 nM, DBG 0 nM 0.15): 0.23
level of Bim (Bim; NSCLC cells, DBG): increased
